For one experiment, the system named is 22RV1 cells. Put plainly: Cell proliferation assay (CellTiter Glo), 22RV1. The format is cell-based. Conditions: Homo sapiens, 22Rv1, 72 h, read-out: 22RV1 IC50. The method, then: IC50 values were calculated and graphed using the model “log(inhibitor) vs. response—Variable slope” included in GraphPad Prism 5 (San Diego, CA). The Ki values were further calculated using the equation below where [L] was the radioligand concentration (1 nM) using in this study. Kd value was 0.332 nM. Ki=IC50/(1+[L]/Kd) c. AR transactivation: Human AR cloned into a CMV vector backbone was used for the transactivation study. HEK-293 cells were plated at 80,000 cells per well of a 24 well plate in DME+5% csFBS. Twenty four hours later, the cells were transfected using Lipofectamine (Invitrogen, Carlsbad, CA) with 0.25 μg GRE-LUC, 0.01 μg CMV-LUC (renilla luciferase) and 25 ng of the AR in OPTIMEM medium. The cells were treated 24 hrs after transfection with various ligands (10^−12 to 10^−5 M final concentrations) and luciferase assay were performed 48 hours after transfection. Firefly values were normalized to renilla luciferase values and the values were represented as relative light units (RLU). Agonist and antagonist assays for the test article were performed in the absence and in the combination with 0.1 nM R1881, respectively. Data were represented as EC50 (for agonists) and IC50 (for antagonists) obtained from four parameter logistics curve. Cell culture and proliferation assays: LNCaP, PC-3, 22RV1, MCF-7, HT-29, and HCT-116 cells were procured from American Type Culture Collection (ATCC). Cells were cultured in medium recommended by the ATCC. Cell culture medium was obtained from Fisher scientific (Waltham, MA) and serum was obtained from Hyclone (San Angelo, TX).
Cells were plated at varying density in the respective growth medium in 96 well plates. 24 hr later, cells were treated, in triplicate or quadruplicate, with test articles prepared in a range of concentrations by series dilution of DMSO stock solutions in growth medium and incubated for three to seven days. The number of viable 22RV1 and HT-29 cells was measured using CellTiter Glo assay (CTG, Promega, Madison, WI) after three days of treatment. The other types of cancer cells were re-treated at three or four days and the number of viable cells was measured using CTG assay after a total treatment time of six or seven days. Cell viability data were plotted using GraphPad Prism (GraphPad Software, Inc., San Diego, CA). In addition, a nonlinear regression model with a sigmoidal dose response and variable slope within GraphPad Prism was used to calculate the IC50 value of individual test articles. Additional cell proliferation assays: Other cancer cell lines are tested in a cell proliferation assay. For example, SK-OV-3 or OVCAR3 ovarian cancer cells are tested. Cells are cultured in medium recommended by the supplier (e.g., ATCC or JCRB Cell Bank), at 37° C. in a 5% CO2 environment. For the proliferation assay, cells are plated in the growth medium in 96 well plates. Seeding density is adjusted according to the cell type. 24 hr later, cells are treated, in triplicate or quadruplicate, with test articles prepared in a range of concentrations by series dilution of DMSO stock solutions in growth medium, and typically incubated for three to seven days, with test article-containing medium replaced after three or four days. The number of viable cells is measured using CellTiter Glo assay (CTG, Promega, Madison, WI) or similar. Cell viability data are plotted using GraphPad Prism (GraphPad Software, Inc., San Diego, CA). In addition, a nonlinear regression model with a sigmoidal dose response and variable slope within GraphPad Prism is used to calculate the IC50 value of individual test articles. Similarly, HEK-293 and HeLa calls can also be tested by methods known in the art. • f. Nuclear translocation: LNCaP cells are plated on coverslips in 24 well plates in growth medium. Twenty-four hours after plating, medium is changed to RPMI+1% csFBS and the cells are maintained in this medium for two days. Medium is replaced again and the cells are treated. […]
(ATP-based viability assays read luminescence as a measure of living cells.)

The target in the next experiment is Human recombinant PARP1 (Homo sapiens, UniProt P09874). Put plainly: RBC HotSpot PARP1 radioisotope-based filter binding assay. The format is biochemical. The method, then: The following methods are for evaluating the in vitro biology properties of the test articles. • a. RBC HotSpot Poly(ADP-ribose) Polymerases 1 (PARP1) and Poly(ADP-ribose) Polymerases 2 (PARP2) Assays: The assay principle is radioisotope-based filter binding assay where incorporation of radioisotope-labeled NAD^+ into the substrate captured on filter is detected after washout free NAD^+. Data were analyzed using Excel and GraphPad Prism software for IC50 curve fits. Each assay was conducted with PJ34 as a positive control. • i. PARP1 assay: Human recombinant PARP1 at a final concentration of 2.5 nM was combined with histone H4 (20 μM) and test articles at various concentrations in reaction buffer (50 mM Tris-HCL, pH 8.0, 50 mM NaCl, 10 mM MgCl2, 1 mM DTT, 1% DMSO, and 20 μg/mL activated DNA). The solution was inoculated for 20 min at room temperature and the reaction initiated by adding [adenylate-^32P]-Nicotinamide Adenine Dinucleotide, ^32P-NAD^+ at a final concentration of 10 μM. After incubation for 2 hour at room temperature, the reaction mixture was filtered and washed with 0.75% phosphoric acid for radioactivity detection. • ii. PARP2 assay: Human recombinant PARP2 at a final concentration of 2.5 nM was combined with histone H3 (20 μM) and test articles at various concentrations in reaction buffer (50 mM Tris-HCL, pH 8.0, 50 mM NaCl, 10 mM MgCl2, 1 mM DTT, 1% DMSO, and 20 μg/mL activated DNA). The solution was inoculated for 20 min at room temperature and the reaction was initiated by adding [adenylate-^32P]-Nicotinamide Adenine Dinucleotide, ^32P-NAD^+ at a final concentration of 10 μM. After incubation for 2 hour at room temperature, the reaction mixture was filtered and washed with 0.75% phosphoric acid for radioactivity detection. • b. AR binding assay: AR in LNCaP cytosol was used for determining the binding affinity of test articles and the reference compound—progesterone (Sigma, Cat: E2785, St. Louis, MO). IC50s were determined using 8 concentrations/compound. Cytosol was plated at 200 μg/well (100 μL) into a 96-well conical polypropylene plate (Agilent, Cat: 5042-1385, Santa Clara, CA) and mixed with 3 μL of test compound. After adding 100 μL of ^3H-methyltrienolone (PerkinElmer, Cat: NET590250UC, San Jose, CA), the plate was sealed and shaken at 300 rpm at 4° C. for 24 hours. Post incubation, 100 μL of radioligand adsorption buffer containing 10 mM Tris-HCl, pH 7.4; 1.5 mM EDTA; 1 mM DTT; 0.25% charcoal; 0.0025% dextran was added to individual well. Plate was shaken for 15 min at 4′C followed by centrifugation at 3000 rpm for 30 min at 4° C. 150 μL of supernatant was transferred into scint-tube (PerkinElmer, Cat: 6000192) and mixed with 2 mL of Ultima Gold Cocktail (PerkinElmer, Cat: 6013329). Radioactivity was counted using a TriCarb 2910 TR scintillation counter (PerkinElmer). Inhibition of the radioactivity by test articles were calculated using the equation below: % Inhibition=(1−(Assay well−Average_LC)/(Average_HC−Average_LC))×100%.

The mark [1] stands for this setting: cell growth inhibition, three days of treatment.
Where [2] appears, read: 2.5 nM enzyme, histone H4, 10 μM 32P-NAD+, read-out: PARP1 IC50.

Like-named read-outs stand apart in the source and are kept apart here.

The values below come from patent US12398121B2 (Nuvation Bio Inc., priority 2018, dated 2025).

Chain of Human recombinant PARP1 (P09874 whole entry): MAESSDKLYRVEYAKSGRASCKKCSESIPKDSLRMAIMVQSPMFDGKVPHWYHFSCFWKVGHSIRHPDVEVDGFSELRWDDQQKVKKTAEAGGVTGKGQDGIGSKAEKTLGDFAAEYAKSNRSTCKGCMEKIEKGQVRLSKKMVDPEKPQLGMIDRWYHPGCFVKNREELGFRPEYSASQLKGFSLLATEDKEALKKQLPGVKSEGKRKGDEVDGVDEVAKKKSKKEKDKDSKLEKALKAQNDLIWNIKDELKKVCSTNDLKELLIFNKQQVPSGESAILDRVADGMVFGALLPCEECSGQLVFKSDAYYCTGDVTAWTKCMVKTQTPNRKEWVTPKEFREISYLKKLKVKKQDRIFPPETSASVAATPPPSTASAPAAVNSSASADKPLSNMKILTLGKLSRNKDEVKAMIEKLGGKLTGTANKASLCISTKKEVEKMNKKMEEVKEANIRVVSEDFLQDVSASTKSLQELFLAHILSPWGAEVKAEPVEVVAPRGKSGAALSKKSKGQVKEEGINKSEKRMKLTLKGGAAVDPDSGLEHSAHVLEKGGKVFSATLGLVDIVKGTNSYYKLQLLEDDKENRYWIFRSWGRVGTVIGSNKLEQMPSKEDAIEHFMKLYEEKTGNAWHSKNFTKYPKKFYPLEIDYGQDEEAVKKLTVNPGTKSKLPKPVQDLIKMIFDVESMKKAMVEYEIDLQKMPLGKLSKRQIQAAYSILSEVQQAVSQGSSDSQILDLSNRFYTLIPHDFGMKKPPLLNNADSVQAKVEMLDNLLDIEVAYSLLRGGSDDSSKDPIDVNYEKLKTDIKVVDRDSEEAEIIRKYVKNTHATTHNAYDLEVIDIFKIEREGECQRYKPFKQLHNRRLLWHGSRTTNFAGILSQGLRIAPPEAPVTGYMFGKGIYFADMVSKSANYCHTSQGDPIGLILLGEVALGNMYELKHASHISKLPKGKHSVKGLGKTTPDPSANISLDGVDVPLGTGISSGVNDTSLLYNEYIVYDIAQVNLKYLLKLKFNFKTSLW

With `CC1(C)C(=O)N(c2ccc(C#N)c(C(F)(F)F)c2)C(=S)N1c1ccc(C(=O)NCCCCCCNCc2ccc(-c3[nH]c4cc(F)cc5c4c3CCNC5=O)cc2)c(F)c1` [Compound 1.5, 4-(3-(4-cyano-3-(trifluoromethyl)phenyl)-5,5-dimethyl-4-oxo-2-thioxoimidazolidin-1-yl)-2-fluoro-N-(6-((4-(8-fluoro-1-oxo-2,3,4,6-tetrahydro-1H-azepino[5,4,3-cd]indol-5-yl)benzyl)amino)hexyl)benzamide], the IC50 (in general, the midpoint of a concentration-inhibition curve) with 22RV1 cells came out at 4500 nM; on Human recombinant PARP1, 23 nM.
In the case of `C[C@]12CCC(=O)C[C@@H]1CC[C@@H]1[C@@H]2CC[C@]2(C)[C@@H](OCC(=O)N3CCN(C(=O)c4cc(Cc5n[nH]c(=O)c6ccccc56)ccc4F)CC3)CC[C@@H]12` [Compound 1.110, 4-(3-(4-(2-((5S,8R,9S,10S,13S,14S,17S)-10,13-dimethyl-3-oxohexadecahydro-1H-cyclopenta[a]phenanthren-17-yloxy)acetyl)piperazine-1-carbonyl)-4-fluorobenzyl)phthalazin-1(2H)-one], the IC50 in the experiment with 22RV1 cells (setting [1]) came out at 840 nM; on Human recombinant PARP1 (setting [2]) it was 0.7 nM.
`C[C@](O)(CS(=O)(=O)c1ccc(NCC(=O)N2CCN(C(=O)c3cc(Cc4n[nH]c(=O)c5ccccc45)ccc3F)CC2)cc1)C(=O)Nc1ccc(C#N)c(C(F)(F)F)c1` [Compound 1.98, (R)-N-(4-cyano-3-(trifluoromethyl)phenyl)-3-(4-(2-(4-(2-fluoro-5-((4-oxo-3,4-dihydrophthalazin-1-yl)methyl)benzoyl)piperazin-1-yl)-2-oxoethylamino)phenylsulfonyl)-2-hydroxy-2-methylpropanamide]: the IC50 worked out at 3500 nM with 22RV1 cells and 0.2 nM at Human recombinant PARP1.
Turning to `CCC(=C(c1ccc(O)cc1)c1ccc(OCCN2CCN(C(=O)c3cc(Cc4n[nH]c(=O)c5ccccc45)ccc3F)CC2)cc1)c1ccccc1` [Compound 2.14, 4-(4-fluoro-3-(4-(2-(4-(1-(4-hydroxyphenyl)-2-phenylbut-1-enyl)phenoxy)ethyl)piperazine-1-carbonyl)benzyl)pthalazin-1(2H)-one], the IC50 on Human recombinant PARP1 (setting [2]) turned out to be 274 nM.
With `C[C@]12CCC(=O)C[C@@H]1CC[C@@H]1[C@@H]2CC[C@@]2(C)[C@H]1CC[C@@]2(O)CCCN1CCN(C(=O)c2cc(Cc3n[nH]c(=O)c4ccccc34)ccc2F)CC1` [Compound 1.119, 4-(4-fluoro-3-(4-(3-((5S,8R,9S,10S,13S,14S,17R)-17-hydroxy-10,13-dimethyl-3-oxohexadecahydro-1H-cyclopenta[a]phenanthren-17-yl)propyl)piperazine-1-carbonyl)benzyl)phthalazin-1(2H)-one], the values for the IC50 in the experiment with 22RV1 cells and on Human recombinant PARP1 (setting [2]) were 2900 nM and 1.6 nM, respectively.
Consider `C[C@]12CCC(=O)C[C@@H]1CC[C@@H]1[C@@H]2CC[C@]2(C)[C@@H](OCCOCC(=O)N3CCN(C(=O)c4cc(Cc5n[nH]c(=O)c6ccccc56)ccc4F)CC3)CC[C@@H]12` [Compound 1.104, 4-(3-(4-(2-(2-((5S,8R,9S,10S,13S,14S,17S)-10,13-dimethyl-3-oxohexadeca hydro-1H-cyclopenta[a]phenanthren-17-yloxy)ethoxy)acetyl)piperazine-1-carbonyl)-4-fluorobenzyl)phthalazin-1(2H)-one], for which the values for the IC50 with 22RV1 cells (setting [1]) and on Human recombinant PARP1 (setting [2]) were 1100 nM and 1.2 nM, respectively.
For `C[C@](O)(COc1ccc(NCCCCCC(=O)N2CCN(C(=O)c3cc(Cc4n[nH]c(=O)c5ccccc45)ccc3F)CC2)cc1)C(=O)Nc1ccc(C#N)c(C(F)(F)F)c1` [Compound 1.83, (S)-N-(4-cyano-3-(trifluoromethyl)phenyl)-3-(4-(6-(4-(2-fluoro-5-((4-oxo-3,4-dihydrophthalazin-1-yl)methyl)benzoyl)piperazin-1-yl)-6-oxohexylamino)phenoxy)-2-hydroxy-2-methylpropanamide], the results for the IC50 in the experiment on 22RV1 cells and on Human recombinant PARP1 (setting [2]) were more than 30000 nM and 0.7 nM, respectively.
For `O=C(c1ccc(OCCN2CCN(C(=O)c3cc(Cc4n[nH]c(=O)c5ccccc45)ccc3F)CC2)cc1)c1c(-c2ccc(O)cc2)sc2cc(O)ccc12` [Compound 2.13, 4-(4-fluoro-3-(4-(2-(4-(6-hydroxy-2-(4-hydroxyphenyl)benzo[b]thiophene-3-carbonyl)phenoxy)ethyl)piperazine-1-carbonyl)benzyl)phthalazin-1(2H)-one], the IC50 in the experiment with 22RV1 cells (setting [1]) was 1690 nM; at Human recombinant PARP1 (setting [2]) it was 3.3 nM.
For `CN(CCCCCC(=O)N1CCN(C(=O)c2cc(Cc3n[nH]c(=O)c4ccccc34)ccc2F)CC1)CCOc1ccc(C(=O)c2c(-c3ccc(O)cc3)sc3cc(O)ccc23)cc1` [Compound 2.4, 4-(4-fluoro-3-(4-(6-((2-(4-(6-hydroxy-2-(4-hydroxyphenyl)benzo[b]thiophene-3-carbonyl)phenoxy)ethyl)(methyl)amino)hexanoyl)piperazine-1-carbonyl)benzyl)phthalazin-1(2H)-one], the IC50 at Human recombinant PARP1 (setting [2]) was 4 nM.
For `CC1(C)C(=O)N(c2ccc(C#N)c(C(F)(F)F)c2)C(=S)N1c1ccc(C(=O)NCCCCCC(=O)N2CCN(C(=O)c3cc(Cc4n[nH]c(=O)c5ccccc45)ccc3F)CC2)c(F)c1` [Compound 1.1, 4-(3-(4-cyano-3-(trifluoromethyl)phenyl)-5,5-dimethyl-4-oxo-2-thioxoimidazolidin-1-yl)-2-fluoro-N-(6-(4-(2-fluoro-5-((4-oxo-3,4-dihydrophthalazin-1-yl)methyl)benzoyl)piperazin-1-yl)-6-oxohexyl)benzamide], at Human recombinant PARP1, the IC50 was determined as 2 nM.
